Reference: PubChem BioAssay AID330 (DTP/NCI, 2004)
Values joined by “and” are separate entries in the source; they are usually repeats but may differ in a detail not shown here. Identical values can stand only once. Inconclusive results and toxic doses are left out. Rule for the calls: active = survival T/C of 150% or more; inactive = T/C below 125% in these data.

Tested on: P388 leukemia ip, CD2F1 mice, survival T/C
Assay: NCI In Vivo Anticancer Drug Screen. Data for tumor model P388 Leukemia (intraperitoneal) in CD2F1 (CDF1) mice
Settings: endpoint: median survival time, higher = longer survival
Method in brief: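 Mice carrying the transplanted tumor received test compound or vehicle. Survival was recorded in each group, and the value is the treated-group measurement divided by that of the vehicle-treated control group.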

[1] = dose: 50.0 mg/kg/injection, schedule: Q01DX005 (ip), vehicle: Klucel (hydroxypropylcellulose) (HPC)
[2] = dose: 100.0 mg/kg/injection, schedule: Q01DX005 (ip), vehicle: Klucel (hydroxypropylcellulose) (HPC)
[3] = dose: 200.0 mg/kg/injection, schedule: Q01DX005 (ip), vehicle: Klucel (hydroxypropylcellulose) (HPC)
[4] = dose: 50.0 mg/kg/injection, schedule: Q01DX009 (ip), vehicle: saline with Tween-80
[5] = dose: 100.0 mg/kg/injection, schedule: Q01DX009 (ip), vehicle: saline with Tween-80
[6] = dose: 60.0 mg/kg/injection, schedule: Q01DX005 (ip), vehicle: saline with Tween-80
[7] = dose: 120.0 mg/kg/injection, schedule: Q01DX005 (ip), vehicle: saline with Tween-80
[8] = dose: 240.0 mg/kg/injection, schedule: Q01DX005 (ip), vehicle: saline with Tween-80
[9] = dose: 50.0 mg/kg/injection, schedule: Q01DX009 (ip), vehicle: Klucel (hydroxypropylcellulose) (HPC)
[10] = dose: 100.0 mg/kg/injection, schedule: Q01DX009 (ip), vehicle: Klucel (hydroxypropylcellulose) (HPC)
[11] = dose: 200.0 mg/kg/injection, schedule: Q01DX009 (ip), vehicle: Klucel (hydroxypropylcellulose) (HPC)
[12] = dose: 400.0 mg/kg/injection, schedule: Q01DX009 (ip), vehicle: Klucel (hydroxypropylcellulose) (HPC)
[13] = dose: 50.0 mg/kg/injection, schedule: Q01DX009 (ip), vehicle: saline
[14] = dose: 100.0 mg/kg/injection, schedule: Q01DX009 (ip), vehicle: saline
[15] = dose: 200.0 mg/kg/injection, schedule: Q01DX009 (ip), vehicle: saline

Measured: T/C

CC(=O)NCc1cc(C)c(CBr)cc1CBr
inactive: dose: 0.78 mg/kg/injection, schedule: Q01DX009 (ip), vehicle: distilled water + Tween-80 103 % of control | dose: 1.56 mg/kg/injection, schedule: Q01DX009 (ip), vehicle: distilled water + Tween-80 107 % of control | dose: 3.12 mg/kg/injection, schedule: Q01DX009 (ip), vehicle: distilled water + Tween-80 109 % of control | dose: 6.25 mg/kg/injection, schedule: Q01DX009 (ip), vehicle: distilled water + Tween-80 116 % of control | dose: 12.5 mg/kg/injection, schedule: Q01DX009 (ip), vehicle: distilled water + Tween-80 93 % of control

CC(=O)C1C(=O)OC(C)(C)C1C=C(Cl)Cl (configuration not stated)
inactive: dose: 100.0 mg/kg/injection, schedule: Q04DX002 (ip), vehicle: saline with Tween-80 101 % of control | dose: 200.0 mg/kg/injection, schedule: Q04DX002 (ip), vehicle: saline with Tween-80 107 % of control | dose: 400.0 mg/kg/injection, schedule: Q04DX002 (ip), vehicle: saline with Tween-80 109 % of control

COc1c2ccoc2nc2c(O)c3c(c(CC=C(C)C)c12)OCO3
inactive: dose: 1.5 mg/kg/injection, schedule: Q01DX005 (ip), vehicle: Klucel (hydroxypropylcellulose) (HPC) 102 % of control | dose: 3.0 mg/kg/injection, schedule: Q01DX005 (ip), vehicle: Klucel (hydroxypropylcellulose) (HPC) 104 % of control | dose: 6.0 mg/kg/injection, schedule: Q01DX005 (ip), vehicle: Klucel (hydroxypropylcellulose) (HPC) 103 % of control | dose: 11.88 mg/kg/injection, schedule: Q01DX005 (ip), vehicle: Klucel (hydroxypropylcellulose) (HPC) 86 % of control | dose: 12.0 mg/kg/injection, schedule: Q01DX005 (ip), vehicle: Klucel (hydroxypropylcellulose) (HPC) 96 % of control | dose: 47.5 mg/kg/injection, schedule: Q01DX005 (ip), vehicle: Klucel (hydroxypropylcellulose) (HPC) 86 % of control

CCn1c2ccccc2c2ccc(N=Cc3ccccc3[N+](=O)[O-])cc21
inactive: dose: 100.0 mg/kg/injection, schedule: Q04DX003 (ip), vehicle: Klucel (hydroxypropylcellulose) (HPC) 98 % of control | dose: 200.0 mg/kg/injection, schedule: Q04DX003 (ip), vehicle: Klucel (hydroxypropylcellulose) (HPC) 97 % of control | dose: 400.0 mg/kg/injection, schedule: Q04DX003 (ip), vehicle: Klucel (hydroxypropylcellulose) (HPC) 96 % of control

COC(=O)c1n[nH]c(C(C)C)c1N=NN(C)C
inactive: dose: 6.25 mg/kg/injection, schedule: Q01DX009 (ip), vehicle: saline 107 % of control and 113 % of control | dose: 12.5 mg/kg/injection, schedule: Q01DX009 (ip), vehicle: saline 116 % of control and 122 % of control

O=C(COc1ccc(Cl)cc1)NN1CCCCCC1
inactive: dose: 7.5 mg/kg/injection, schedule: Q01DX005 (ip), vehicle: Klucel (hydroxypropylcellulose) (HPC) 99 % of control | dose: 15.0 mg/kg/injection, schedule: Q01DX005 (ip), vehicle: Klucel (hydroxypropylcellulose) (HPC) 98 % of control

CC(NC(=O)OCc1ccccc1)C(=O)NC(C(=O)O)C(C)O (configuration not stated)
inactive: [1] 98 % of control | [2] 99 % of control | [3] 96 % of control

c1cc2n3c1CCc1ccc(n1CC3)CC2
inactive: dose: 8.0 mg/kg/injection, schedule: Q01DX009 (ip), vehicle: saline with Tween-80 100 % of control | dose: 16.0 mg/kg/injection, schedule: Q01DX009 (ip), vehicle: saline with Tween-80 100 % of control | dose: 32.0 mg/kg/injection, schedule: Q01DX009 (ip), vehicle: saline with Tween-80 100 % of control

Clc1ccc(S/N=C/c2ccccc2)cc1
inactive: [4] 113 % of control | [5] 114 % of control

CN(C)Cc1nsc(N(C)C)n1
inactive: [1] 100 % of control | [2] 97 % of control | [3] 93 % of control

C[C@@H]1C(N2CCCC2)=CC(=O)OC1c1ccccc1 (some centres not stated)
inactive: [6] 105 % of control | [7] 109 % of control | [8] 111 % of control

CCCCCCCNC1CCCc2cc(OC)ccc21 (configuration not stated)
inactive: dose: 50.0 mg/kg/injection, schedule: Q04DX003 (ip), vehicle: saline 113 % of control | dose: 100.0 mg/kg/injection, schedule: Q04DX003 (ip), vehicle: saline 99 % of control

CCOC(=O)CC1=CSC(=C(C#N)C#N)N1c1ccccc1
inactive: dose: 50.0 mg/kg/injection, schedule: Q01DX005 (ip), vehicle: saline with Tween-80 102 % of control | dose: 100.0 mg/kg/injection, schedule: Q01DX005 (ip), vehicle: saline with Tween-80 98 % of control | dose: 200.0 mg/kg/injection, schedule: Q01DX005 (ip), vehicle: saline with Tween-80 98 % of control

O=C(NO)c1ccccc1
inactive: dose: 25.0 mg/kg/injection, schedule: Q01DX009 (ip), vehicle: Klucel (hydroxypropylcellulose) (HPC) 98 % of control | dose: 50.0 mg/kg/injection, schedule: Q01DX001 (ip), vehicle: saline 102 % of control | [9] 98 % of control | [4] 103 % of control | dose: 50.0 mg/kg/injection, schedule: Q04DX003 (ip), vehicle: saline with Tween-80 106 % of control | dose: 100.0 mg/kg/injection, schedule: Q01DX001 (ip), vehicle: saline 102 % of control | [10] 107 % of control | dose: 100.0 mg/kg/injection, schedule: Q04DX003 (ip), vehicle: saline with Tween-80 102 % of control | [11] 116 % of control | dose: 200.0 mg/kg/injection, schedule: Q01DX009 (ip), vehicle: saline with Tween-80 103 % of control | dose: 200.0 mg/kg/injection, schedule: Q04DX003 (ip), vehicle: saline with Tween-80 102 % of control | [12] 114 % of control | dose: 400.0 mg/kg/injection, schedule: Q04DX003 (ip), vehicle: saline with Tween-80 109 % of control

O=Cc1c2ccc(Cl)cc2nc2cc(Cl)ccc12
inactive: dose: 25.0 mg/kg/injection, schedule: Q01DX001 (ip), vehicle: saline with Tween-80 100 % of control | dose: 50.0 mg/kg/injection, schedule: Q01DX001 (ip), vehicle: saline with Tween-80 90 % of control | dose: 100.0 mg/kg/injection, schedule: Q01DX001 (ip), vehicle: saline with Tween-80 100 % of control

CN(C)CCNc1ccc(N)c2sc3ccccc3c(=O)c12
inactive: dose: 25.0 mg/kg/injection, schedule: Q01DX009 (ip), vehicle: saline with Tween-80 99 % of control and 92 % of control | [4] 100 % of control and 112 % of control and 93 % of control | [5] 112 % of control and 121 % of control

COc1cccc2c1C(=O)c1c(O)c3c(c(O)c1C2=O)C[C@@H](C(=O)CO)C[C@@H]3OC1CC(N)C(O)C(C)O1 (some centres not stated)
inactive: dose: 6.25 mg/kg/injection, schedule: Q04DX003 (ip), vehicle: water 105 % of control | dose: 12.5 mg/kg/injection, schedule: Q04DX003 (ip), vehicle: water 105 % of control | dose: 25.0 mg/kg/injection, schedule: Q04DX003 (ip), vehicle: water 124 % of control

CCOC(=O)c1nnn(-c2cncc(-n3nnc(C(=O)OCC)c3C(=O)OCC)n2)c1C(=O)OCC
inactive: dose: 60.0 mg/kg/injection, schedule: Q01DX005 (ip), vehicle: Klucel (hydroxypropylcellulose) (HPC) 98 % of control | dose: 120.0 mg/kg/injection, schedule: Q01DX005 (ip), vehicle: Klucel (hydroxypropylcellulose) (HPC) 102 % of control | dose: 240.0 mg/kg/injection, schedule: Q01DX005 (ip), vehicle: Klucel (hydroxypropylcellulose) (HPC) 103 % of control

COc1ccccc1NC(=O)C1=C(C)NC(C)=C(C(=O)Nc2ccccc2OC)C1c1ccc(OC)c(OC)c1
inactive: [6] 103 % of control | [7] 99 % of control | [8] 94 % of control

ClCCN(CCCl)c1ccc2c(c1)Cc1cc(Br)ccc1-2
inactive: [9] 107 % of control | [10] 110 % of control | [11] 106 % of control | [12] 110 % of control

CC1=CC(=C2C(=O)c3ccccc3C2=O)C=CN1CCCN1CCCCC1
inactive: [13] 103 % of control and 119 % of control | [14] 101 % of control and 106 % of control | [15] 106 % of control and 123 % of control | dose: 400.0 mg/kg/injection, schedule: Q01DX009 (ip), vehicle: saline 100 % of control

O=C(Nc1ccc([N+](=O)[O-])cc1)C1C(=O)C(=O)N(c2ccc([N+](=O)[O-])cc2)C1=O (configuration not stated)
inactive: [9] 107 % of control | [10] 100 % of control | [11] 104 % of control

CCC(c1ccc(OCC(=O)NCCCl)cc1)C(CC)c1ccc(OCC(=O)NCCCl)cc1 (configuration not stated)
inactive: [13] 97 % of control | [14] 93 % of control | [15] 88 % of control
